In PubChem BioAssay AID588840 (Broad Institute, 2011):

system: MDA-MB-231 viability, CellTiter-Glo luminescence, 72 h; assay: cytotoxicity in MDA231 breast tumor cells – cell-based, CellTiter-Glo luminescence, dry powder, set 2, dose response (AID 588840); conditions: not given

With Cc1csc(NC(=O)c2ccc(COc3cccc(F)c3)o2)n1 the AC50 was 480 nM.

system: not listed separately; assay: as above; conditions: MDA-MB-231 viability, CellTiter-Glo luminescence, 72 h; at 32 µM (top of the series)

Compared with Cc1ccc(/C=C/C(=O)NC2=NCCS2)cc1, CC(C)c1ccc(/C=C/C(=O)NC2=NCCS2)cc1 is lower in viability fraction (lower = toxic): 114% for the first, 34.6% for the second.

First: O=C(/C=C/c1ccc(-c2ccccc2)cc1)NC1=NCCS1
Second: COc1ccc(/C=C/C(=O)NC2=NCCS2)c(OC)c1
The viability fraction (lower = toxic) of the first is lower: 76.4% for the first, 118% for the second.

Compared with O=C(NC1CCCC1)c1ccc(COc2ccccc2)o1, Cc1csc(NC(=O)c2ccc(COc3ccccc3)o2)n1 is lower in viability fraction (lower = toxic): 101% for the first, 72.4% for the second.
